For series [1] the following is noted: in vivo; cited from earlier work.
Series [2] relates to human SK-N-SH cells bearing muscarinic binding sites. The series can be described thus: Muscarinic Induced Inositol Phosphate Accumulation Assay (MIPA). In kind it is cell-based. To be noted: inositol phosphate production, concentration for response 50% of the maximum, read-out: Agonist Response ED50. As to the method:
In the Muscarinic Induced Inositol Phosphate Accumulation Assay (MIPA) human SK-N-SH cells bearing muscarinic binding sites are incubated with the test compound. The production of inositol phosphates is then measured. Stimulation of inositol phosphate turnover reflects the degree of muscarinic agonist activity of the test compound. The concentration of test compound required to produce a response 50% of the maximum is then determined.

The test system of the next series is laboratory rats. The series can be described thus: Scopolamine Induced Swimming Assay (SIS). The series is classed as in vivo, rat. To be noted: for reversal of scopolamine-induced swimming hyperactivity: rats given scopolamine, result in words. As to the method: In the Scopolamine Induced Swimming Assay (SIS) the ability of a test compound to reverse the hyperactive swimming behavior of laboratory rats given scopolamine is determined. In the assay, untreated rats generally swim between 20 to 30 meters during a five-minute test period. […] The effect of scopolamine is centrally mediated. Thus, the ability of the test compound to reverse the hyperactive swimming behavior induced by scopolamine is a measure of the central cholinergic activity of the compound.

Series [3] relates to central muscarinic antagonist site. In kind it is binding. To be noted: rat cerebral cortex tissue; radiolabeled quinuclidinyl benzilate; (1 μM); read-out: RQNB IC50.
The target of series [4] is central muscarinic agonist site. The series can be described thus: Receptor [3H]Cis-methyldioxalane Assay (RCMD), central muscarinic agonist site binding. The following applies: rat cerebral cortex tissue; radiolabeled cis-methyldioxalane; head also prints (0.1 μM).
The subject of series [5] is aged humans and nonhuman primates. The following applies: acetylcholinesterase inhibitor; cited from earlier work.
The test system of the next series is mice. The following applies: cited from earlier work.
For series [6] the following is noted: in vivo; cited from earlier work. This is another data set of the same source.

Where a name gives a salt, the structure may show the parent alone.

Consider `Nc1ccncc1N` [3,4-diaminopyridine], for which the age-related cognitive deficits entry in series [1] is on record as “ameliorate age-related cognitive deficits”.
Regarding `COC(=O)N(C)CC#CCN1CCCC1` [Example 1, Methyl[methyl4-(1-pyrrolidinyl]-2-butynyl]]-carbamate, ethanedioate (1:1) (salt)], the EC50 in series [2] amounted to 10 µM. Further, the minimal effective dose with laboratory rats (Rattus norvegicus, Minimal Effective Dose to reverse scopolamine (0.1 mg/kg) induced hyperactive swimming in rats, read-out: Reversal of SIS Hyperactivity MED) was 10 mg/kg. Besides, the IC50 in series [3] came out at 2.66 µM; in series [4], 14.3 nM.
With `COC(=O)N(C)CC#CCN1CCCCC1` [Example 1f, Methyl methyl[4-(1-piperidinyl]-2-butynyl-carbamate, ethanedioate (1:1) (salt)], the IC50 in series [3] was found to be 4.99 µM; in series [4], 1570 nM.
Consider `COC(=O)N(C)CC#CCN1CCCCCC1` [Example 1g, Methyl[4-(hexahydro-1H-azepin-1-yl]-2-butynyl]methylcarbamate, ethanedioate (1:1) (salt)], for which the IC50 in series [3] is 1.95 µM; in series [4] it was 958 nM.
Regarding `COC(=O)N(C)CC#CCN(C)C` [Example 2, Methyl[4-(dimethylamino)-2-butynyl]methyl-carbamate, ethanedioate (1:1)(salt)], in series [2], the EC50 was 59.2 µM. In addition, the results for the IC50 in series [3] and in series [4] were 46.6 µM and 63 nM, respectively.
For `COC(=O)C1=CCCN(C)C1` [arecoline], the “reversal of scopolamine-induced swimming hyperactivity” value in the series with laboratory rats is given as “can be reversed”.
With `CNC(=O)Oc1ccc2c(c1)[C@]1(C)CCN(C)[C@@H]1N2C` [physostigmine], in series [5], the memory result is listed as “improved memory”. Besides, the “reversal of scopolamine-induced swimming hyperactivity” value with laboratory rats was “can be reversed”.
As to `CN1[C@@H]2C[C@@H](OC(=O)[C@H](CO)c3ccccc3)C[C@H]1[C@@H]1O[C@@H]12` [scopolamine], the “swimming distance increase above baseline values” in the series on laboratory rats (scopolamine 0.1 mg/kg, five-minute test period, rats) is reported as 75-125%.
On to `C(#CCN1CCCC1)CN1CCCC1` [tremorine, 1,4-dipyrrolidino-2-butyne], for which the “duration of profound tremor of the head and limbs” value in the series with mice is listed as “more than one”. In addition, the “conversion to active metabolite oxotremorine” value in series [6] was “converted to an active metabolite, oxotremorine”.

The IC50 is the concentration that gives 50% inhibition.

(Values after US4996201A, “4-(N-substituted amino)-2-butynyl-1-carbamates and thiocarbamates and derivatives thereof as centrally acting muscarinic agents” (Warner-Lambert Co., priority 1989, dated 1991).)
